In patent publication US8299096B2, “Method for treating pulmonary diseases using rho kinase inhibitor compounds” (priority 2008, dated 2012):
Entries after “also recorded” stand apart in the source; their conditions may differ.

How the values were obtained:
[1] = system: rat tracheal rings pretreated with IL-1β and TNF-α or vehicle; experiment: Effect of inflammatory cytokines on tracheal relaxation; conditions: 300 nM carbachol
Procedure: Male Sprague-Dawley rats weighing 301-325 gm were sacrificed by asphyxiation in a CO2 chamber. Trachea were excised, cleaned of connective tissue and cut into cylindrical segments of 2-3 mm length. Tissues were treated for 18 hours at 37° C. in F12 media with penicillin-streptomycin and 0.1% BSA alone or with 10 ng/ml IL-1β and 100 ng/ml TNF-α. Tissues were then washed free of cytokines with Krebs buffer. Contractile tensions were measured using an isometric force transducer (Grass Instruments) as described for Example 3 and signals were analyzed using specialized software (Chart v5.5, ADInstruments). Tissues were treated with 300 nM carbachol for 10 to 15 minutes to induce a contractile response. Test Compounds were added cumulatively to the bath every 30 minutes and reductions in tension were recorded. Basal tension was subtracted from all values and data were reported as a percentage of the maximal carbachol-induced contraction. Data were fit to the Hill equation using GraphPad Prism v5 software.

[2] = system: ovalbumin-sensitized mice; experiment: Bronchodilator assay in ovalbumin-sensitized mouse model of asthma (Penh); assay type: in vivo
Procedure: Male BALB/c mice were ordered from Charles River Laboratories (Raleigh, N.C.). The animals were approximately 19 to 21 grams at time of receipt. Upon arrival, the animals were randomized into groups of five males per cage and assigned to a dosing group. Animals were quarantined for 7 days under test conditions. They were observed daily for general health status and ability to adapt to the water bottles.
Animals were sensitized on day 0 and 14 of study by an intraperitoneal injection with 20 μg of ovalbumin (ova) and 2.0 mg aluminum hydroxide (alum) which initiates the development of a specific T-helper (Th) cells type 2 resulting in asthmatic animals. One group of animals received an injection of saline to use as non-asthmatic control animals. All animals were challenged with aerosolized 1% ova once daily for 25 minutes on days 28, 29, and 30 (Zosky, et al. Respiratory Research, 2004; 5:15). Aerosol challenge consists of using an Aerogen Aeroneb nebulizer and controller with a particle size of 4-6 μm mass median aerodynamic diameter (MMAD) with a distribution of 400 μl per minute. This aerosol challenge is necessary to target the Th2-driven allergic inflammation in the lower airways.
The test compounds and the control vehicle were administered to animals on the day of airway hyperreactivity evaluation 30 minutes to 1 hour before the evaluation to determine the bronchodilator effects of the compounds according to the bronchodilator dosing paradigm (FIG. 3A). Compounds were administered p.o. (orally), i.p. (intraperitoneally) at 15 μMol/kg unless otherwise noted (Table 4). Alternatively, compounds were administered i.t. (intratracheally) at varying doses as shown (FIG. 3B). On day 32 of the experiment, airway hyperreactivity was evaluated by placing conscious, unrestrained animals in a whole body plethysmometer (Buxco Wilmington, N.C.) and exposing them to escalating doses of nebulized methacholine, a known bronchial constrictor which acts through the muscarinic receptors of the lungs, (doses: […]-50 mg/ml). Exposure to the methacholine doses consisted of a 3 minute period during which a nebulizer was aerosolizing the methacholine and an additional 3 minute period following the cessation of nebulization. Over this 6 minute period, the plethysmometer monitors and generates numerical values for all parameters of the breath pattern. Enhanced pause (Penh), a unitless index of airway hyperreactivity, is derived from the expiratory side of the respiratory waveform measured via the plethysmograph and is used as an indirect measure of airway resistance and hyperreactivity. […] Following the methacholine dose response, all animals were anesthetized, bled and euthanized.
Within each experiment, a mouse was given a single compound and exposed to increasing doses of methacholine [0 (baseline), 0.375, 0.75, 1.5, 3, 6, 12, 25, 50 mg/ml]. The Penh value at each of the dose levels of methacholine represents the 6-minute average response. Change from baseline (CFB) in Penh was calculated at each methacholine dose and the area under the curve (AUC) for these CFB values was calculated using the trapezoidal rule. This same approach was applied for each mouse across multiple experiments.
For statistical analyses, a linear mixed-effects model where the response was the log 10 transformed value of AUC described above was used. Data from equal experimental conditions across experiments performed on different days were pooled for statistical analysis and data reporting. The various compounds were compared adjusting for the log 10-transformed baseline value of Penh and the chamber (1 of 10) of the plethysmometer each mouse was contained in during an experiment. A random intercept for each experiment was assumed to account for possible similarities of the results obtained from a given experiment (i.e., as a “blocking effect”).
For Table 4 and Table 5, Penh values are reported as log 10 transformed AUC values. […]

[3] = system: ovalbumin-sensitized mice; experiment: Anti-inflammatory assay in ovalbumin-sensitized mouse model of asthma (BALF cells and cytokines); assay type: in vivo; conditions: dosed i.t. to day 30, anti-inflammatory dosing paradigm
Source text: Mouse model of asthma via ovalbumin sensitization was created as described in Example 5. The anti-inflammatory dosing paradigm (FIG. 4) was utilized to evaluate the anti-inflammatory effects of experimental compounds. The anti-inflammatory dosing paradigm consists of dosing the animals once a day starting on day 27 and finishing on either day 30 or 31 (1 hr prior to the aerosolized ovalbumin challenges on days 28 to 30) but not on day 32 when hyper-reactivity evaluation occurs.
Bronchoalveolar lavage fluid (BALF) was collected by infusing 3.0 ml of saline with 10% fetal calf serum into the lungs via the trachea and then withdrawing the fluid. The total amount of cells/ml of BALF fluid was determined via manual cell count on hemocytometer. The BALF was centrifuged, supernatant removed and analyzed for cytokine concentrations as described below, and cell pellet reconstituted in 500 μL of fluid. Cytospin slides were prepared from the cell pellet using 100 μL of fluid and spinning samples for 5 minutes at 5000 rpms in a cytospin centrifuge. Following Hema3 stain, relative percentages of individual leukocytes were determined on a 200 cell count for each sample. The final concentration of individual leukocyte cell types per ml of BALF was determined by multiplication of the relative percentage of individual leukocytes with the total amount of cells/ml of BALF fluid.
The concentrations of cytokines in the BALF samples were determined using commercially available Bio-plex kits (Bio-Rad) for the detection of mouse IL-5, IL-13, and Eotaxin. The analysis of cytokine levels was measured using the Bio-Plex 200 (Bio-Rad) system according to the manufacturer's instructions.

[4] = Rat oral pharmacokinetics (plasma); assay type: in vivo
Procedure: Plasma (EDTA K2 anticoagulant) was collected from male, cannulated, CD Sprague Dawley rats to determine the pharmacokinetics of formulations containing compound inhibitors of Rho kinase. Each animal was dosed orally with a 4 ml/kg solution or suspension of each test compound in 10 mM acetate buffered saline, pH 4.5 at a final concentration range of 20-30 μmol/kg. Blood was collected at 0.25, 0.5, 1, 2, 4, 6, 8, and 24 hours. Plasma samples were assayed for the concentration of the test compound using an on-line, solid phase extraction LC/MS/MS analysis system.
Samples were analyzed on a QSTAR Elite, hybrid quadrupole time-of-flight mass spectrometer (Applied Biosystems, Framingham, Mass.) coupled with a Symbiosis Pharma integrated, on-line SPE-HPLC system (Spark Holland Inc., Plainsboro, N.J.). Analyst QS 2.0 software was used for instrument control, data acquisition and processing. […] Mobile Phase A consisted of 0.1% ammonium hydroxide in water and Mobile Phase B consisted of 0.1% formic acid in acetonitrile. Pharmacokinetic analyses were performed using WinNonlin software version 5.2 (Pharsight Corporation, Mountain View, Calif.).

[5] = system: LPS-challenged mice; experiment: LPS-induced neutrophilia and cytokine production assay; assay type: in vivo, mouse; conditions: for IL-1β levels in BALF: intratracheal administration, LPS-challenged mice
Procedure: Male BALB/c mice, approximately 19 to 21 grams, were ordered from Charles River Laboratories (Raleigh, N.C.). All animals were challenged with aerosolized LPS (10 μg/ml) for 25 minutes on study day 0. LPS aerosol was generated using an Aerogen Aeroneb nebulizer and controller providing a flow of 400 μl/min and a particle size of 2-4 μm MMAD. Rolipram was administered i.p at 20 mg/kg. […] Four hours following LPS challenge, BALF was collected using a total of 3 ml of 0.9% sodium chloride containing 10% fetal calf serum. Total cell counts were determined using the Coulter Counter. For differential evaluations, BALF was centrifuged and cytospin slides prepared and stained with Hema3 stain. Manual leukocyte counts were then completed on 200 cells. The final concentration of individual leukocyte cell types per ml of BALF was determined by multiplication of the relative percentage of individual leukocytes with the total amount of cells/ml of BALF fluid. The concentration of IL-1β in the BALF samples was determined using commercially available Bio-plex kits (Bio-Rad). The analysis of cytokine levels was measured using the Bio-Plex 200 (Bio-Rad) system according to the manufacturer's instructions.

[6] = system: A-10 rat thoracic aorta cells; experiment: PDGF-stimulated smooth muscle cell proliferation assay (BrdU); assay type: cell-based; conditions: 10 ng/mL PDGF, A-10 cells
Procedure: Effects on cell proliferation were measured using a bromodeoxyuridine (BrdU) incorporation assay. […] Serum free media containing 0.1% BSA was added to the cells. 24 hours later the media was removed and replaced with warmed serum free media. […] Proliferation was then monitored using the BrdU Cell Proliferation Assay, HTS (Calbiochem cat. #HTS01). BrdU was allowed to incorporate into cells for 24 hours prior to the addition of fixative/denaturing solution and the fluorometric detection of incorporated BrdU using a BrdU antibody as per manufacturer's directions. Data are reported as a percent of the PDGF-stimulated BrdU incorporation.

[7] = system: ovalbumin-sensitized mice; experiment: Prevention of airway hyperreactivity development, anti-inflammatory dosing paradigm (Penh); assay type: in vivo, mouse; conditions: intratracheal, once a day, days 27 to 30 (1.091) or 27 to 31
[8] = biological target: T1, GCK (Homo sapiens, UniProt Q12851); experiment: Kinase panel screen, GCK; assay type: biochemical; conditions: 1 μM test compound, 10 μM ATP
T1 construct: purchased Upstate, Millipore Bioscience Division (KinaseProfiler service)
T1 sequence (Q12851 1-820): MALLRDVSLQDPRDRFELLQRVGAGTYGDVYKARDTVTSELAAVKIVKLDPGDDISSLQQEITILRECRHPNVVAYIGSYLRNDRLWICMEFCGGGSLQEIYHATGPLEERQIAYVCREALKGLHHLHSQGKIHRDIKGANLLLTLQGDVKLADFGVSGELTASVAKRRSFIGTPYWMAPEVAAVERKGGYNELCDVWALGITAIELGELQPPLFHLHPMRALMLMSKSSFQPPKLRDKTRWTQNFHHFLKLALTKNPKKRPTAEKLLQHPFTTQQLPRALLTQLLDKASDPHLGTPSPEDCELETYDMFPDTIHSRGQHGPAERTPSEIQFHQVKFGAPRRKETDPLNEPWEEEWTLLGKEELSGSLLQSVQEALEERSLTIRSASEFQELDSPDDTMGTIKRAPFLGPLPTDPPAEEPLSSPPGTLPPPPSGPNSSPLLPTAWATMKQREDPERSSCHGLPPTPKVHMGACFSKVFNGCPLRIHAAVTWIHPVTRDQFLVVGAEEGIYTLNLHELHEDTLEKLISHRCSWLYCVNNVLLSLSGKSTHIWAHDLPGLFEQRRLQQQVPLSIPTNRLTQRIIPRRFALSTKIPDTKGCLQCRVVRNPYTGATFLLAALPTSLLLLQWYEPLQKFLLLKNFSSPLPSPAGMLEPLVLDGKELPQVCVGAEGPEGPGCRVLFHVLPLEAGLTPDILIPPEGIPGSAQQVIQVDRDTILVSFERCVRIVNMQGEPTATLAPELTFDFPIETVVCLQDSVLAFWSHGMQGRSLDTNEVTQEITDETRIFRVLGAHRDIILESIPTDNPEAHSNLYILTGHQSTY
Procedure: (§1) Compounds of Formulae I and II were examined for activity against a selected panel of kinases using the KinaseProfiler™ enzyme profiling services (Upstate, Millipore Bioscience Division). Percent kinase activity at 10 μM and 1 μM test compound and 10 μM ATP was determined against 40 wild-type recombinant human kinases according to Upstate's standard protocol: ASK1, BTK, CSK, c-RAF, GCK, GSK3β, IKKα, IKKβ, IRAK1, IRAK4, JNK1α1, JNK2α2, JNK3, ERK1, ERK2, MAPKAP-K2, MAPKAP-K3, MEK1, MKK4, MKK6, MKK7β, Mnk2, MSK1, PAK3, PDK1, PRAK, ROCK1, Rsk2, SAPK2a, SAPK2b, SAPK3, SAPK4, SRPK1, SRPK2, Syk, TAK1, TBK1, PI3-Kβ, PI3-Kγ, PI3-Kδ.

[9] = biological target: T2, Mnk2 (Homo sapiens, UniProt Q9HBH9); experiment: Kinase panel screen, Mnk2; assay type: biochemical; conditions: 10 μM ATP
T2 construct: purchased Upstate, Millipore Bioscience Division (KinaseProfiler service)
Procedure: as §1

[10] = biological target: T3, IRAK1 (Homo sapiens, UniProt P51617); experiment: Kinase panel screen, IRAK1; assay type: biochemical; conditions: 10 μM ATP
T3 construct: purchased Upstate, Millipore Bioscience Division (KinaseProfiler service)
Procedure: as §1

[11] = biological target: T4, IRAK4 (Homo sapiens, UniProt Q9NWZ3); experiment: Kinase panel screen, IRAK4; assay type: biochemical; conditions: 10 μM ATP
T4 construct: purchased Upstate, Millipore Bioscience Division (KinaseProfiler service)
T4 sequence (Q9NWZ3 1-460): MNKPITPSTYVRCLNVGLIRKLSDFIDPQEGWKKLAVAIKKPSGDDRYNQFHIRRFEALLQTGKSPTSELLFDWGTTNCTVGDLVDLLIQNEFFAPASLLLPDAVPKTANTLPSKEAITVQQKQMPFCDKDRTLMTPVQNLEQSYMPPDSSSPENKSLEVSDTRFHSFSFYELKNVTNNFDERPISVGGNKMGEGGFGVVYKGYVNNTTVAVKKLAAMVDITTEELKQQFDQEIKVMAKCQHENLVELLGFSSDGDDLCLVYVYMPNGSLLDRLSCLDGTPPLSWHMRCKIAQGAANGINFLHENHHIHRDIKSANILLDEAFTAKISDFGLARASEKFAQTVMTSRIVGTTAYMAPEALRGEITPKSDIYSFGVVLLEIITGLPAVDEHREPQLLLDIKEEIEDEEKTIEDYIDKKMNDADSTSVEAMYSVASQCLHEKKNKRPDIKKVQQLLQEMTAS
Procedure: as §1

[12] = rat, oral, 20-30 μmol/kg, plasma, mean n = 3

T3 sequence (P51617 whole entry): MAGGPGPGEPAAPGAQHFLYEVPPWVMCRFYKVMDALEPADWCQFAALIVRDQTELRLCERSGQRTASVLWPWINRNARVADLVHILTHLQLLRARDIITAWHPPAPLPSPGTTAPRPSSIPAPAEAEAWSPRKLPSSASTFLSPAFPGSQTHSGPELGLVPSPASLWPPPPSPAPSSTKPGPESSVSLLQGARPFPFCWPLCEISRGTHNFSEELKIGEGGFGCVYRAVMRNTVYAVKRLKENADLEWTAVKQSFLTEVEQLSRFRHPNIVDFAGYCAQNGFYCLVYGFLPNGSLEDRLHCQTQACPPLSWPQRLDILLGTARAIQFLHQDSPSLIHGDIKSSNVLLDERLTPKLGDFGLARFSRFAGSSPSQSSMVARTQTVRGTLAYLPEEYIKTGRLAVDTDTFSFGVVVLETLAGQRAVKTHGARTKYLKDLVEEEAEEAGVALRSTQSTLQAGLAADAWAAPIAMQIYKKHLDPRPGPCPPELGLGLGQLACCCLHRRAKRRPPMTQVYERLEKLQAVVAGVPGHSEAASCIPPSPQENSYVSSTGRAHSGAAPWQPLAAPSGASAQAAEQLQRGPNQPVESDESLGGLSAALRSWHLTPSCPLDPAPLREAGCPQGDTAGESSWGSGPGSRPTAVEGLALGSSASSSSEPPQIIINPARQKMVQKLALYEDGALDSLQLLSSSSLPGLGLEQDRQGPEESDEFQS
T2 sequence (Q9HBH9 whole entry): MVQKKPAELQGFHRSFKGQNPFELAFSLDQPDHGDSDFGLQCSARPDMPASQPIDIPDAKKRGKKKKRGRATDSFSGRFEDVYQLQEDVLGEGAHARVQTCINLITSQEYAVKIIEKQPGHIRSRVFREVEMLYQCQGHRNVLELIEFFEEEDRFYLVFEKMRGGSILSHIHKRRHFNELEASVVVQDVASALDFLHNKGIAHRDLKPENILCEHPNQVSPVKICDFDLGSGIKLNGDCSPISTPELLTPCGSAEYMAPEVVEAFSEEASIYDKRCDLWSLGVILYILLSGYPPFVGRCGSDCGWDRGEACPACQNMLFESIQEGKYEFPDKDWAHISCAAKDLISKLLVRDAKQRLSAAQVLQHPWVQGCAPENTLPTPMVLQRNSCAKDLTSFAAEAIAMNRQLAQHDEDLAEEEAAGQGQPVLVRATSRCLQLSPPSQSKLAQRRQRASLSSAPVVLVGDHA

SMILES: CS(=O)(=O)Nc1cccc(CN2CCC[C@H](Nc3ccc4[nH]ncc4c3)C2)c1 [Compound 1.091]
- Potency in cytokine-pretreated versus vehicle-pretreated tissues [1]: slightly more potent in cytokine-pretreated tissues
- Relaxation of tracheal rings from vehicle-pretreated and cytokine-pretreated tissues ([1]; 10 ng/ml IL-1β and 100 ng/ml TNF-α, 18 hours): fully efficacious
- Reduction in airway hyperresponsiveness ([2]; i.p. route of administration, compared to oral dosing): enhanced reduction
- Bronchodilatory response ([2]; intratracheal administration): robust bronchodilatory response
- Reduction in airway hyperresponsivness ([2]; oral doses): did not yield a significant reduction
- Eosinophils in BALF [3]: reduction of eosinophils
- Oral bioavailability ([4]; oral dosing): poor
- AUC (0-last) [4, 12]: below the level of quantification
- Cmax [4, 12]: below the level of quantification
- Efficacy on neutrophilia compared to rolipram dosed i.p. ([5]; dosed intratracheally): similar
- IL-1β levels in BALF [5]: reduction
- LPS-induced pulmonary neutrophilia (BALF) ([5]; intratracheal dosing one hour prior to LPS challenge, mice): significant reduction; also recorded: dose-dependent inhibition

SMILES: CSc1ccc(CN2CC[C@@H](Nc3cccc4cnccc34)C2)cc1 [Compound 2.026]
- Percent of PDGF Induced Proliferation at 1 μM Avg ([6]; 1 μM): 74.5%
- Percent of PDGF Induced Proliferation at 10 μM Avg ([6]; 10 μM): 52.0%

SMILES: NC(=O)Cn1ccc2cc(CN3CC[C@@H](Nc4cccc5cnccc45)C3)ccc21 [Compound 2.059]
- Prevention of airway hyperreactivity [7]: prevention of airway hyperreactivity
- IL-1β levels in BALF [5]: reduction
- percent inhibition at 1 µM [8]: 75%
- Percent inhibition, Mnk2 ([9]; 1 μM test compound): 49%
- Percent inhibition, Mnk2 ([9]; 10 μM test compound): 12%
- Percent inhibition, IRAK1 ([10]; 1 μM test compound): 87%
- Percent inhibition, IRAK1 ([10]; 10 μM test compound): 30%
- Percent inhibition, IRAK4 ([11]; 1 μM test compound): 63%
- Percent inhibition, IRAK4 ([11]; 10 μM test compound): 22%
